From patent US10207023B2, “Antibacterial calcium-based materials” (NATIONAL CHENG KUNG UNIVERSITY, priority 2012, dated 2019)

Legend:
S. aureus = assay: Antimicrobial activity measurement (CFU count in TSB); format: cell-based
Description: Appropriate amount of UV-sterilized sample (either granule or cement) to be tested was put in a 12-well plate, wherein was added 1 ml Tryptone Soya Broth (TSB) with 10^6 live S. aureusbacteria in each well (concentration: 10^6 colony-forming units (CFU) per ml). S. aureusbacteria were cultured with the sample anaerobically at 37° C. One cultured without sample was considered as a positive control in each study group. The viability of the bacterial suspensions incubated with different samples was assessed using Tryptone Soya Agar (TSA) solid agar plates. After cultivation for 24 h, broth of each well was sequentially diluted and plated. The growth of bacteria was evaluated after cultivation on agar plates at 37° C. for 24 h. Then colony-forming units (CFU) were counted to calculate concentration using the equation,
[formula] and the antimicrobial activity is obtained by the following equation: Antimicrobial activity={[(Conc. of control group)−(conc. of experiment)]/(Conc. of control group)}×100%
Appropriate amounts of UV-sterilized Li3PO4 or Li2CO3 salt were each mixed with 1 ml TSB and tested for their antimicrobial activity values using the aforementioned method.
Appropriate amounts of “65/35” powder were mixed with appropriate amounts of Li3PO4 or Li2CO3 salt to form TTCP/DCPA/CSH/Li salt mixed powder with different Li salt ratios. The mixed powder was mixed with 0.6 M (NH4)2HPO4 solution to form a cement paste. Prior to being fully hardened, the paste was placed in a stainless steel mold under a pressure of 450 Kgf to squeeze a portion of the liquid out of the paste. After being hardened and removed from the mold, the hardened block was crushed and sieved into granules with a particle size range of about 0.4-1.2 mm. 0.2 g UV-sterilized thus-obtained granular sample was mixed with 1 ml TSB and tested for its antimicrobial activity using the aforementioned method.

[1] = system: staphylococcus aureus (SA); assay: Disk diffusion assay (antibacterial zone); format: cell-based; conditions: for antibacterial behavior: commercially pure lithium compounds, dry- or wet-molded 3 mm high, 6 mm dia. cylinders; for anti-bacterial zones: wet-molded pure Li compound (0.6 M (NH4)2HPO4 setting solution, 1.4 MPa), 6 mm dia. cylinder
Description: (§1) To prepare a TSB medium, 6 g Tryptone (Neogen, USA), 2 g Soytone (Soytone BD, USA) and 2 g NaCl (J.T. Baker, USA) were placed into a beaker filled with 400 ml of double distilled water and mixed with a stir bar. After total dissolution, the pH of the solution was adjusted to 7.3 and the solution was autoclaved (121° C., 1.2 kg/cm^2) for 30 min.
as §1, with “TSA” for “TSB”, “USA),” for “USA) and”, “Baker, USA) and 6 g Agar (Neogen,” for “Baker,”, “min. After being sterilized, the TSA medium was poured into a petri dish and allowed hardened. The TSA medium was then placed into an incubator at 30° C.” for “min.”
1 ml staphylococcus aureus (SA) containing TSB medium was transferred into a 15 ml centrifuge tube, wherein 10 ml phosphate buffered saline (PBS) was added and mixed gently. The mixture was centrifuged (KUBOTA 5922, Japan) at 3000 rpm for 10 minutes. The supernatant was removed and a SA pellet remained. 1 ml PBS was then added to suspend the pellet. 20 μl of the SA suspension and 180 μl PBS were transferred into each well of a 96 well plate. The absorbance was assayed using an ELISA reader (Sunrise, Tecan, Switzerland) at 600 nm to determine the bacterial concentration (cfu/ml) (200 μl of PBS was used as a negative control). Once determined, an appropriate volume of SA containing medium was transferred into a 1 micro centrifuge tube, wherein TSB was added to adjust bacterial concentration to 3.5×10^6 (cfu/ml). The tube was shaked for 15 seconds to allow thorough mixing. 100 μl of the SA containing medium was removed and dropped evenly across the agar plate. Once the broth was distributed evenly on agar plate and became almost dry, samples to be tested were placed on top of the agar and the petri dish was covered with a parafilm. The dish was placed in an incubator (LM-570R, Yih Der, Taiwan) at 37° C. for 24 hours. Bacteria colony formation was then observed and colony diameters measured.
After being loaded, the samples were placed on a table for 1 hour to become dry. Four samples were then placed into a 20 ml glass vial, wherein 8 ml Hanks' solution was added with a solid/liquid ratio of 0.1 g/ml. The glass vial was put into a water bath at 37° C. for 1, 2, 3, 5, and 7 days. The Hanks' solution was changed daily. Once having been soaked for desired periods of time, the samples were placed into a 50° C. oven for 24 hours, then stored in a zip lock bag.

Compound	Antimicrobial activity (24 h) (S. aureus; Li salt amount/TSB 0.06 g/ml) [%]	Antimicrobial activity (24 h) (S. aureus; Li salt amount/TSB 0.08 g/ml) [%]	Antimicrobial activity (24 h) (S. aureus; Li salt amount/TSB 0.10 g/ml) [%]	Antimicrobial activity (24 h) (S. aureus; Li salt amount/TSB 0.12 g/ml) [%]	Antimicrobial activity (24 h) (S. aureus; Li salt amount/TSB 0.14 g/ml) [%]	24 h antimicrobial activity value (S. aureus; all Li2CO3 salt samples (0.06-0.14 g/ml TSB)) [%]	antibacterial behavior [1]	anti-bacterial zones [1] [mm]	24 h antimicrobial activity values (S. aureus; 0.06-0.12 g Li3PO4 salt in 1 ml TSB)
O=C([O-])[O-].[Li+].[Li+] [Li2CO3, Lithium carbonate]	100	100	100	100	100	100	high antibacterial behavior	18	–
[Li+].[Li+].[O-2] [Li2O, Lithium oxide]	–	–	–	–	–	–	high antibacterial behavior	–	–
O=S(=O)([O-])[O-].[Li+].[Li+] [Li2SO4, Lithium sulfate]	–	–	–	–	–	–	high antibacterial behavior	22	–
O=P([O-])([O-])[O-].[Li+].[Li+].[Li+] [Li3PO4, Lithium phosphate]	98.9	98.9	97.4	98.8	99.8	–	high antibacterial behavior	–	97.4-98.9%
[F-].[Li+] [LiF, Lithium fluoride]	–	–	–	–	–	–	high antibacterial behavior	–	–
